Values after ≈ are worked out from the molar mass of the structure shown.
Assay: Solubilities of Compound A to several test solutions
Assay type: physicochemical
Excerpt: Compound A was used as an insoluble active ingredient in the following references and examples.

Q: What does the source list for `CC1(C)[C@H]2C[C@H](C/C=C\CCCC(=O)O)[C@@H](NC(=O)c3csc4ccc(O)cc34)[C@@H]1C2` [Compound A, (Z)-7-[(1R,2R,3S,5S)-2-(5-hydroxybenzo[b]thiophen-3-ylcarbonylamino)-10-norpinan-3-yl]-5-heptenoic acid]?
A: Final pH (test solution JP-1 Sol.): 1.15; Final pH (test solution JP-2 Sol.): 6.84; Solubility 3 hours (test solution JP-2 Sol.): 81.08 µg/mL (≈ 184 µM); Solubility 6 hours (test solution JP-2 Sol.): 81.65 µg/mL (≈ 185 µM); Final pH (test solution Water): 5.81; Solubility 3 hours (test solution Water): 5.56 µg/mL (≈ 12.6 µM); Solubility 6 hours (test solution Water): 5.93 µg/mL (≈ 13.4 µM); Final pH (test solution pH4.0): 4.07; Final pH (test solution pH6.0): 6.08; Solubility 3 hours (test solution pH6.0): 15.19 µg/mL (≈ 34.4 µM); Solubility 6 hours (test solution pH6.0): 15.57 µg/mL (≈ 35.3 µM); Final pH (test solution pH7.8): 7.6; Solubility 3 hours (test solution pH7.8): 487.87 µg/mL (≈ 1100 µM); Solubility 6 hours (test solution pH7.8): 489.05 µg/mL (≈ 1110 µM); Final pH (test solution pH8.0): 7.76; Solubility 3 hours (test solution pH8.0): 652.56 µg/mL (≈ 1480 µM); Solubility 6 hours (test solution pH8.0): 675.55 µg/mL (≈ 1530 µM); Final pH (test solution pH8.5): 8.29; Solubility 3 hours (test solution pH8.5): 6197.64 µg/mL (≈ 14000 µM); Solubility 6 hours (test solution pH8.5): 6224.39 µg/mL (≈ 14100 µM)
